Values after ≈ are worked out from the molar mass of the structure shown.
Key:
MOR [1] = target: T1, MOR (Homo sapiens, UniProt P35372); assay: High content imaging based β-arrestin translocation assay, MOR agonist (MOR HCS); format: cell-based; settings: n = 2, read-out: Average Potency MOR HCS
Text: (§1) In this campaign, two assay platforms were employed to evaluate KOR activity and selectivity: the KOR1 DISCOVERX β-Arrestin […] assay and an imaging based β-arrestin translocation assay for confirmatory and selectivity assays. The KOR1 DISCOVERX β-Arrestin […] assay is a commercial platform for direct measurement of GPCR (G protein-coupled receptor) activation by detection of β-Arrestin binding to the KOR. […] In cells that stably express these fusion proteins, ligand stimulation results in the recruitment of β-Arrestin by the GPCR. This interaction encourages the complementation of the two β-galactosidase fragments resulting in the formation of a functional enzyme that converts substrate in the assay medium to a detectable signal. The imaging based high-content β-arrestin translocation assay is based upon the redistribution of β-Arrestin linked to green fluorescent protein (GFP) to the cell surface and detection (Barak, et al. (1997) J. Biol. Chem. 272:27497-27500).
(§2) Initially, a portion (approximately 290,000 compounds) of the MLSMR compound collection was tested in the KOR1 DISCOVERX β-arrestin primary kappa opioid (KOP) agonist and antagonist screens (PUBCHEM AID 1777 and 1778, respectively) at a single concentration point (10 μM). […] These compounds were concurrently tested in a β-galactosidase counterscreen assay (PUBCHEM AID 1966) to assess the possibility that these compounds might inhibit the reporting enzyme. […] The KOR:DOR:MOR selectivity of the compounds was determined using the analogous β-arrestin translocation assays for the DOR (PUBCHEM AID 2370 and 2357, for agonists and antagonist, respectively) and the MOR (PUBCHEM AID 2352 and 2420, for agonists and antagonists, respectively).

physchem = assay: physchem
Description: In addition to profiling the selectivity of this class of KOR ligands, basic pharmacological properties were assessed.

[2] = PAMPA (Parallel Artificial Membrane Permeability Assay); settings: for Papp: PAMPA
Description: (§3) PAMPA is used as an in vitro model of passive, transcellular permeability. An artificial membrane immobilized on a filter is placed between a donor and acceptor compartment. At the start of the test, drug is introduced in the donor compartment (at various pH). Following the permeation period, the concentrations of compound in the donor compartment and acceptor compartment are measured using UV spectroscopy.

[3] = Plasma protein binding, mouse; format: in vitro ADME
Text: Plasma protein binding is a measure of a drug's efficiency to bind to the proteins within blood plasma. The less bound a drug is, the more efficiently it can traverse cell membranes or diffuse. Highly plasma protein bound rugs are confined to the vascular space, thereby having a relatively low volume of distribution. In contrast, drugs that remain largely unbound in plasma are generally available for distribution to other organs and tissues. In the instant case, the Chemotype I antagonist 1{3} was marginally available with 88.46% and 80.07% bound to 1 μM and 10 μM mouse plasma protein, respectively, and 93.96% and 88.54% bound to 1 μM and 10 μM human plasma protein, respectively.

Plasma stability, human = format: in vitro ADME
Text: Plasma stability is a measure of the stability of small molecules and peptides in plasma and is an important parameter that can strongly influence the in vivo efficacy of a test compound. Drug candidates are exposed in plasma to enzymatic processes (proteinases, esterases), and they can undergo intramolecular rearrangement or bind irreversibly (covalently) to proteins.

[4] = Hepatic microsome stability, human; format: in vitro ADME; settings: human microsomes, 1 hour
Text: (§4) The microsomal stability assay is commonly used to rank compounds according to their metabolic stability. This assay addresses the pharmacologic question of how long the parent compound will remain circulating in plasma within the body.

[5] = Hepatic microsome stability, mouse; format: in vitro ADME; settings: mouse microsomes, 1 hour
Text: as §4

5ht1e = 5ht1e (Homo sapiens, UniProt P28566); assay: PDSP radioligand binding assay
5ht1e, sequence (P28566 whole entry, species assumed): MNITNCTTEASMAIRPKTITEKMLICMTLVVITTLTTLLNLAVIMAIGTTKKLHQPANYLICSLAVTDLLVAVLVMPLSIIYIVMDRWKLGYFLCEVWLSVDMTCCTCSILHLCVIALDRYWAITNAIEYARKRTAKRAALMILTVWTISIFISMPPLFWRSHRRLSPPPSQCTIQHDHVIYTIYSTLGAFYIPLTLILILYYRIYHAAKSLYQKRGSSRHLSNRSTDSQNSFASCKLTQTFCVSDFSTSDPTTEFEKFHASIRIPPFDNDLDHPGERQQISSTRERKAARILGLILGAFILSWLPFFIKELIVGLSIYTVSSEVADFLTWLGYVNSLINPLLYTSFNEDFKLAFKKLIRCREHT
Description: (§5) The compound was initially screened in radioligand binding assays at a constant concentration (10 μM) to identify possible activity of the compound. Results showing significant activity in the initial screen were selected for Ki determinations.
(§6) As a representative of the Chemotype II series, the MLPCN probe molecule 2{8} was subjected to a binding assay panel of 44 GPCR and other molecular targets by the Pyschoactive Drug Screening Program (PDSP) (Table 10). The compound was initially screened in a radioligand binding assay at a constant concentration (10 μM) to identify possible activity of the compound. Results showing significant activity in the initial screen were selected for Ki determinations.

5ht3 = 5ht3 (Homo sapiens, UniProt P46098); assay: PDSP radioligand binding assay
5ht3, sequence (P46098 24-478, species assumed): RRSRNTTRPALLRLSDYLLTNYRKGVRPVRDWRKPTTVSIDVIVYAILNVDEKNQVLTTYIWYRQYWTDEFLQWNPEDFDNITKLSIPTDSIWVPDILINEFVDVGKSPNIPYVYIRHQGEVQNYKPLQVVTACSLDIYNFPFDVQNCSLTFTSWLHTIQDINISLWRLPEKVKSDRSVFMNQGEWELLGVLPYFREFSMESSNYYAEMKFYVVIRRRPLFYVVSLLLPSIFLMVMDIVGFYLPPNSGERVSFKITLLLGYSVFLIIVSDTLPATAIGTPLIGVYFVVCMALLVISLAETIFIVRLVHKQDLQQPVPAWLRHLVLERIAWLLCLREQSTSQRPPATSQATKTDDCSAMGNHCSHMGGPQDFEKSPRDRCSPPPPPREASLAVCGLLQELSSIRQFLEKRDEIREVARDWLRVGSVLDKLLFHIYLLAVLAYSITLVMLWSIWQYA
Description: as §5, §6

5ht6 = 5ht6 (Homo sapiens, UniProt P50406); assay: PDSP radioligand binding assay
5ht6, sequence (P50406 whole entry, species assumed): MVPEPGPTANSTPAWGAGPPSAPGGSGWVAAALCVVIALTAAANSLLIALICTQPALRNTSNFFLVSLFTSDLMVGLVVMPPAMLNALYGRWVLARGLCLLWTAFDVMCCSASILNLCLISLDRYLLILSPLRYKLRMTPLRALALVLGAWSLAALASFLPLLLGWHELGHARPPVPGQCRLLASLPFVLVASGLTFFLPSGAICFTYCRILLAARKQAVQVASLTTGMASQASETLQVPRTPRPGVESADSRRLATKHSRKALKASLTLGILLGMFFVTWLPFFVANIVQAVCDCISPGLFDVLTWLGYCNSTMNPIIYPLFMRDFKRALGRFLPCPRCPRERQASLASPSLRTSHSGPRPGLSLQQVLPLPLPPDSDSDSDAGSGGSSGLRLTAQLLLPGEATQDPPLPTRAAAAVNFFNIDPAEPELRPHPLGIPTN
Description: as §5, §6

Alpha1A = Alpha1A (Homo sapiens, UniProt P35348); assay: PDSP radioligand binding assay
Alpha1A, sequence (P35348 whole entry): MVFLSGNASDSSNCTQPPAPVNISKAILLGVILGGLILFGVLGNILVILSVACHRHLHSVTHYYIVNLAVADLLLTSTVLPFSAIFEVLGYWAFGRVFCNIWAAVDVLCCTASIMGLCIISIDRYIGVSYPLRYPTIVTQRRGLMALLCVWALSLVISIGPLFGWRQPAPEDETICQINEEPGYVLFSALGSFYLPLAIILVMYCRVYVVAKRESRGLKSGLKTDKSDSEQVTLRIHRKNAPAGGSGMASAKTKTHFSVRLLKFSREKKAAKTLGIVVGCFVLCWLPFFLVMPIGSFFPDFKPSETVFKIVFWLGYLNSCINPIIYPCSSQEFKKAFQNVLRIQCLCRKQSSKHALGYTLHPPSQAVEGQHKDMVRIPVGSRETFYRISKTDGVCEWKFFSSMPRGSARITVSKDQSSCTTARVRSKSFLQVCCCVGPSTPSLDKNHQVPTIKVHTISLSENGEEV
Description: as §5, §6

Beta2 = Beta2 (Homo sapiens, UniProt P07550); assay: PDSP radioligand binding assay
Beta2, sequence (P07550 whole entry): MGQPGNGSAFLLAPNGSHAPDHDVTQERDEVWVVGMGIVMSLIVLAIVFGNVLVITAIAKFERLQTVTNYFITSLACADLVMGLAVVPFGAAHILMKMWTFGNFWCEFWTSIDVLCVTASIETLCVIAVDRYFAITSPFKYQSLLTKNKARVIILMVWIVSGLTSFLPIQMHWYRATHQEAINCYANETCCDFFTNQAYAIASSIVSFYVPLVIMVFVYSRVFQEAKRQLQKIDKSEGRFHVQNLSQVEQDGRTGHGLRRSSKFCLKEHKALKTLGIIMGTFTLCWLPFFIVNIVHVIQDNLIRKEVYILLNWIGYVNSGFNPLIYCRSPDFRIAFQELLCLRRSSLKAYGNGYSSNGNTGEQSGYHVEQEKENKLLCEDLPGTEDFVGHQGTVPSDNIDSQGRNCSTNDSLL
Description: as §5, §6

H2 = H2 (Homo sapiens, UniProt P25021); assay: PDSP radioligand binding assay
H2, sequence (P25021 whole entry): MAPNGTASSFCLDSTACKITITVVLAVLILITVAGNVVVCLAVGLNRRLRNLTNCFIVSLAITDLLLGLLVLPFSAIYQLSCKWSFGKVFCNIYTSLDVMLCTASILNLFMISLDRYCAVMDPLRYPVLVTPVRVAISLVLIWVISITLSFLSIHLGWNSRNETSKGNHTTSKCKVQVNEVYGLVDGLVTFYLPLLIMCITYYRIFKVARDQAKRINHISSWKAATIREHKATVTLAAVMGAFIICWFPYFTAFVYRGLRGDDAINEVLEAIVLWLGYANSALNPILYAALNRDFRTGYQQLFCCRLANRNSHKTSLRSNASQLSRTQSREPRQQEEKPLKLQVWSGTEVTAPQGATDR
Description: as §5, §6

M4 = M4 (Homo sapiens, UniProt P08173); assay: PDSP radioligand binding assay
M4, sequence (P08173 whole entry): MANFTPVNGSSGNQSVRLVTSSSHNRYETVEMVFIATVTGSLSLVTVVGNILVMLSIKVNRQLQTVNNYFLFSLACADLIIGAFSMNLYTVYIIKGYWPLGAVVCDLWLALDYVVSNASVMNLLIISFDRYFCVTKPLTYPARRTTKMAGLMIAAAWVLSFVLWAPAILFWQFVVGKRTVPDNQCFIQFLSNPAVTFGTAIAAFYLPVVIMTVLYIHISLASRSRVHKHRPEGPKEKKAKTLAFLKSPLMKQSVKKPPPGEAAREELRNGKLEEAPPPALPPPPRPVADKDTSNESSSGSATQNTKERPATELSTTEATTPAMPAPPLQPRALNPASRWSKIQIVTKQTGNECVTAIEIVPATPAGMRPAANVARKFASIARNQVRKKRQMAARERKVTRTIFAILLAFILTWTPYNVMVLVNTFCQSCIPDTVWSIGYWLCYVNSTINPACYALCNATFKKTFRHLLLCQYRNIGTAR
Description: as §5, §6

NET = NET (Homo sapiens, UniProt P23975); assay: PDSP radioligand binding assay
NET, sequence (P23975 whole entry): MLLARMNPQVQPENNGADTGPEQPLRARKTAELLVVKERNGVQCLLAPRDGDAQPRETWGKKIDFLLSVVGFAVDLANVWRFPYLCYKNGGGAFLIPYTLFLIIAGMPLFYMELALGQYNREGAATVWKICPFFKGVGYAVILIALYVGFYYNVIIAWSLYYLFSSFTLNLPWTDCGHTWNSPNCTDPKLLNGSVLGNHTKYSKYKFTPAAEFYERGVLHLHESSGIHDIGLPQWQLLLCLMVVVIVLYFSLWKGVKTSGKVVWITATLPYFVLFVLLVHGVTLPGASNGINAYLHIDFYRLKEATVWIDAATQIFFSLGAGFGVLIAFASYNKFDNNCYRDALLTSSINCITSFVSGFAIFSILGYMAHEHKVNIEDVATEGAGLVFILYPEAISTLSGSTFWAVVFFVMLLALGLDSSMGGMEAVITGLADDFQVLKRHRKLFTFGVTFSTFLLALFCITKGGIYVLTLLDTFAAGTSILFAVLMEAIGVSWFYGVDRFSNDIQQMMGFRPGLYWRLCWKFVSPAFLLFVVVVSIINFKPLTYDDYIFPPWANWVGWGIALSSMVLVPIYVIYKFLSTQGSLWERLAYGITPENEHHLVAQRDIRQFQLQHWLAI
Description: as §5, §6

DAT = DAT (Homo sapiens, UniProt Q01959); assay: PDSP radioligand binding assay; settings: Table 10
DAT, sequence (Q01959 whole entry, species assumed): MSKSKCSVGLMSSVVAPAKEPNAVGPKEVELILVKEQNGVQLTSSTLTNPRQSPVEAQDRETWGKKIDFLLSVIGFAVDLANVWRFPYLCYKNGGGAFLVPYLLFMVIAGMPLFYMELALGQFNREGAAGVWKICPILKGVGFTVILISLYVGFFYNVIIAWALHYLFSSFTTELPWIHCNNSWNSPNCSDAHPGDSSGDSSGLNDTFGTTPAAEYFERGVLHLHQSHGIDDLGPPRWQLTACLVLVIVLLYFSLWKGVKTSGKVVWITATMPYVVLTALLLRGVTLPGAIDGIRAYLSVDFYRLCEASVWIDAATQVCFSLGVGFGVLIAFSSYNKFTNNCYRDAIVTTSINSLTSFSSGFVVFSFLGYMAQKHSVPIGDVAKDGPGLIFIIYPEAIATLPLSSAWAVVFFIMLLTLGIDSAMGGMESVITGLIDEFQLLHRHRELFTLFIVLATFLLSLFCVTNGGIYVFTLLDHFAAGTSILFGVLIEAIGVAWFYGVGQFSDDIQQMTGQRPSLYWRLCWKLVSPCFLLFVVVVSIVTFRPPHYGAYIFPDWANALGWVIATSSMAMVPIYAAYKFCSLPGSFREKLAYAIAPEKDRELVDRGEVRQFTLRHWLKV
Description: as §5, with “The broader selectivity of compound 1{3} was tested against additional targets and basic pharmacological properties were assessed. […] The” for “The”
as §6

MOR [6] = target: T1, MOR; assay: High content imaging β-arrestin translocation assay, MOR antagonist (MOR HCS); format: cell-based; settings: antagonist; average; read-out: Potency, Antitarget MOR HCS
Text: as §1, §2

DOR = DOR (Homo sapiens, UniProt P41143); assay: High content imaging β-arrestin translocation assay, DOR antagonist (DOR HCS); format: cell-based; settings: antagonist; average; read-out: Potency, Antitarget DOR HCS
Text: as §1, §2

[7] = Stability in PBS at room temperature; format: physicochemical; settings: 48 hours, <0.1% DMSO
[8] = pH 7.4
Description: as §3

T1 sequence (P35372 whole entry, the tested form may be a part): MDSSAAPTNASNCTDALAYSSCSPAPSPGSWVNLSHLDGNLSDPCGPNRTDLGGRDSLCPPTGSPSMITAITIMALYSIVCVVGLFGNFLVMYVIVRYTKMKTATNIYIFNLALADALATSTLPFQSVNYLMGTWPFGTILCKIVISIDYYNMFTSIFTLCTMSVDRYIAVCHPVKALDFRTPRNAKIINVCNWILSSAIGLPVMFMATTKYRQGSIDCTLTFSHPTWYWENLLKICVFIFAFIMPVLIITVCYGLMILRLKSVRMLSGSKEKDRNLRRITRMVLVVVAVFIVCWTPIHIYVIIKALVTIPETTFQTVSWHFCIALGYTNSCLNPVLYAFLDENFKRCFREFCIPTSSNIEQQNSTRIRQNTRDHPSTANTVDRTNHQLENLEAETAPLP

Clc1ccc(CSc2nnc(-c3ccccn3)n2Cc2ccco2)cc1Cl [Compound 2{8}]
EC50 (MOR [1]): > 32 µM
solubility in aqueous buffer (physchem; pH 5.0): < 0.1 µg/mL
solubility in aqueous buffer (physchem; pH 6.2): 0.29 µg/mL (≈ 0.695 µM)
solubility in aqueous buffer (physchem; pH 7.4): 0.14 µg/mL (≈ 0.335 µM)
PAMPA permeability ([2]; donor pH 5): 0.001793 cm/s
PAMPA permeability ([2]; donor pH 6.2): 0.001921 cm/s
PAMPA permeability ([2]; donor pH 7.4): 0.002089 cm/s
bound to plasma ([3]; mouse plasma): > 99%
plasma stability, remaining (Plasma stability, human; human plasma, 3 hours): 100%
microsomal stability, remaining [4]: 0.03%
microsomal stability, remaining [5]: 0.03%
Ki (5ht1e; Table 10): > 10 µM
Ki (5ht3; Table 10): > 10 µM
Ki (5ht6; Table 10): > 10 µM
Ki (Alpha1A; Table 10): > 10 µM
Ki (Beta2; Table 10): > 10 µM
Ki (H2; Table 10): > 10 µM
Ki (M4; Table 10): > 10 µM
Ki (NET; Table 10): 5.87 µM
Ki (DAT): > 10 µM

COc1ccc(N2CCN(CCCNC(=O)Cn3c(=O)c4cccn4c4c(C)ccnc43)CC2)cc1 [Compound 1{3}, N-(3-(4-(4-Methoxyphenyl)piperazin-1-yl)propyl)-2-(1-methyl-6-oxopyrido[2,3-e]pyrrolo[1,2-a]pyrazin-5(6H)-yl)acetamide]
IC50 (MOR [6]): > 32 µM
IC50 (DOR): > 32 µM
solubility (physchem; aqueous buffer): > 90 µg/mL
solubility (physchem; pH 5): 96.6 µg/mL (≈ 198 µM)
solubility (physchem; pH 6.2): 90.6 µg/mL (≈ 185 µM)
parent compound remaining [7]: 94.42%
Papp ([2]; pH 5): 27 ×10⁻⁶ cm/s
Papp ([2]; pH 6.2): 227 ×10⁻⁶ cm/s
Papp ([2]; pH 7.4): 757 ×10⁻⁶ cm/s
blood brain barrier PAMPA permeability [8]: 5.1e-05 cm/s
fraction unbound at 1 μM ([3]; plasma, mouse, 1 μM, read-out: bound to plasma protein (converted)): 0.115
fraction unbound at 10 μM ([3]; plasma, mouse, 10 μM, read-out: bound to plasma protein (converted)): 0.199
plasma stability, remaining (Plasma stability, human; human, plasma, 3 h): 100%
microsomal stability, remaining [4]: 22%
microsomal stability, remaining [5]: 7.3%
Ki (5ht1e; Table 5): > 10 µM
Ki (5ht3; Table 5): > 10 µM
Ki (5ht6; Table 5): > 10 µM
Ki (Alpha1A; Table 5): > 10 µM
Ki (Beta2; Table 5): > 10 µM
Ki (H2; Table 5): 3.5 µM
Ki (M4; Table 5): > 10 µM
Ki (NET; Table 5): 0.685 µM

From patent publication US9345703B2, “Kappa opioid receptor effectors and uses thereof” (University of Kansas, priority 2011, dated 2016)
